Patent US8999998B2, “Pyrazolopyrimidine JAK inhibitor compounds and methods” (Genentech, Inc., priority 2009, dated 2015)

Legend:
Assay type in all cases: biochemical
JAK2 kinase domain = JAK2 kinase domain (Homo sapiens (Human), UniProt O60674); assay: JAK2 inhibition assay (Caliper LabChip, isolated kinase domain); settings: 25 uM ATP, 0.2 nM JAK2; read-out: JAK2 enzymatic activity (Ki)
Text: (§1) The catalytically active kinase domain of human JAK1, JAK2, JAK3 or TYK2 was purified from extracts of SF9 insect cells infected with a recombinant baculovirus expression vector encoding the human JAK1, JAK2, JAK3 or TYK2 kinase domains (JAK1 amino acid residues N852-D1154 according to the numbering of GenBank sequence accession number P23458, JAK2 amino acid residues D812-G1132 according to the numbering of GenBank sequence accession number NP_004963.1; JAK3 amino acid residues S783-S1124 according to the numbering of GenBank sequence accession number P52333, and TYK2 amino acid residues N873-C1187 according to the numbering of GenBank sequence accession number P29597). The activity of the JAK1, JAK2, JAK3 or TYK2 kinase domains can be measured by a number of direct and indirect methods, including quantification of phosphorylation of peptide substrates derived from the human JAK3 protein (Saltzman et al., Biochem. Biophys. Res. Commun. 246:627-633 (2004)). The activity of the JAK1, JAK2, JAK3 or TYK2 kinase domains was measured in vitro by monitoring phosphorylation of JAK3 derived peptides using the Caliper LabChip technology (see Examples).
(§2) The activity of the isolated JAK1, JAK2 or TYK2 kinase domain was measured by monitoring phosphorylation of a peptide derived from JAK3 ([…] fluorescently labeled on the N-terminus with 5-carboxyfluorescein using the Caliper LabChip technology (Caliper Life Sciences, Hopkinton, Mass.). […] Reactions were incubated at 22° C. in 384-well polypropylene microtiter plates for 30 minutes and then stopped by addition of 25 uL of an EDTA containing solution (100 mM Hepes pH 7.2, 0.015% Brij-35, 150 mM EDTA), resulting in a final EDTA concentration of 50 mM. After termination of the kinase reaction, the proportion of phosphorylated product was determined as a fraction of total peptide substrate using the Caliper LabChip 3000 according to the manufacturer's specifications. Ki values were then determined using the Morrison tight binding model. Morrison, J. F., Biochim. Biophys. Acta. 185:269-296 (1969); William, J. W. and Morrison, J. F., Meth. Enzymol., 63:437-467 (1979).

JAK3 kinase domain = JAK3 kinase domain (Homo sapiens (Human), UniProt P52333); assay: JAK3 inhibition assay (Caliper LabChip, isolated kinase domain); settings: 5 uM ATP, 5 nM JAK3; read-out: JAK3 enzymatic activity (Ki)
Sequence of JAK3 kinase domain (P52333 783-1124): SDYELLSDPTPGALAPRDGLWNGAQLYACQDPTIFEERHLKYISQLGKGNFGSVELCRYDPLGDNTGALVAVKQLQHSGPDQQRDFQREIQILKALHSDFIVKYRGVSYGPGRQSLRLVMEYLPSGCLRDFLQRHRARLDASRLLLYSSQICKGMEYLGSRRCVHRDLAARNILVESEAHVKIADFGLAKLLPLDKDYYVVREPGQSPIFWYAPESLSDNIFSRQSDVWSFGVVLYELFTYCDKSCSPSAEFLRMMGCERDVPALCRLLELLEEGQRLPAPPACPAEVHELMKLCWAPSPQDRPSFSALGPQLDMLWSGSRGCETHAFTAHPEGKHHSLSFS
Text: as §1, with “Previous studies have shown that the isolated kinase domains of human JAK1, JAK2, JAK3 or TYK2 phosphorylate peptide substrates in in vitro kinase assays (Saltzman et al., Biochem. Biophys. Res. Commun. 246:627-633 (2004)). The catalytically” for “The catalytically”
as §2, with “JAK3” for “JAK1, JAK2 or TYK2”

TYK2 kinase domain = TYK2 kinase domain (Homo sapiens (Human), UniProt P29597); assay: TYK2 inhibition assay (Caliper LabChip, isolated kinase domain); settings: 25 uM ATP, 1 nM TYK2; read-out: TYK2 enzymatic activity (Ki)
Sequence of TYK2 kinase domain (P29597 873-1187): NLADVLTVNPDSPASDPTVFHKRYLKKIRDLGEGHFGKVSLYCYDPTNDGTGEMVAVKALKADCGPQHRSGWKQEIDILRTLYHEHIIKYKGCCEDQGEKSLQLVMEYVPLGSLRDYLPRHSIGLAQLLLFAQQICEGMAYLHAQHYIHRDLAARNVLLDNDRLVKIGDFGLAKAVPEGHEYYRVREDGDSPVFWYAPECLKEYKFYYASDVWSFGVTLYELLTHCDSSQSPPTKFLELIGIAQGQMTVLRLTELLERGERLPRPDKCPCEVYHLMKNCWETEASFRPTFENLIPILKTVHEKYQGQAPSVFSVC
Text: as §1, §2

JAK1 kinase domain = JAK1 kinase domain (Homo sapiens (Human), UniProt P23458); assay: JAK1 inhibition assay (Caliper LabChip, isolated kinase domain); settings: 25 uM ATP, 1.5 nM JAK1; read-out: JAK1 enzymatic activity (Ki)
Sequence of JAK1 kinase domain (P23458 852-1154): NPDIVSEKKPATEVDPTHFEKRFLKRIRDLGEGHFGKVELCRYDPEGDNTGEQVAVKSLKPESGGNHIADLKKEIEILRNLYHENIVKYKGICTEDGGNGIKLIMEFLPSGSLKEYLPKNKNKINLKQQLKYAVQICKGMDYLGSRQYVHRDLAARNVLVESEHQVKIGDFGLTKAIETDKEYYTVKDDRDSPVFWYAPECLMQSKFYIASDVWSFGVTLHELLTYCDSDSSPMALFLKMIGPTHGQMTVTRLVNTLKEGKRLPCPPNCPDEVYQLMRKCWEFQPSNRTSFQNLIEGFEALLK
Text: as §1, §2

Sequence of JAK2 kinase domain (O60674 812-1132): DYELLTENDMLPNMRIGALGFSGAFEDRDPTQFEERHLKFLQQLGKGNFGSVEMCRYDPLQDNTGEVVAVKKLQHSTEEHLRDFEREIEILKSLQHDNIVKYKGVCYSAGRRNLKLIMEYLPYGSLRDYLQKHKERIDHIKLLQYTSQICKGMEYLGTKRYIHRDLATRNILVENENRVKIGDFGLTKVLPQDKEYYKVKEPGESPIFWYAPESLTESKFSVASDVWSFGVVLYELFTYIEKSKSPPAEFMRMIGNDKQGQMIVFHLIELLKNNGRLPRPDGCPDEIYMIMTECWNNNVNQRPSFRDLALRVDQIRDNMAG

| SMILES | Ki (JAK2 kinase domain) | Ki (JAK3 kinase domain) | Ki (TYK2 kinase domain) | Ki (JAK1 kinase domain) |
| --- | --- | --- | --- | --- |
| O=C(Nc1c[nH]nc1-n1cc(Cl)ccc1=O)c1cnn2cccnc12 [Example 194, N-(3-(5-chloro-2-oxopyridin-1(2H)-yl)-1H-pyrazol-4-yl)pyrazolo[1,5-a]pyrimidine-3-carboxamide] | 110 nM | 4100 nM | 980 nM | 775 nM |
| COc1ccc(C#N)cc1-c1nn(Cc2ncnn2C)cc1NC(=O)c1cnn2cccnc12 [Example 155] | 2.6 nM | 210 nM | 65 nM | 4.2 nM |
| CCOc1ccc(Cl)cc1-c1nn([C@H]2CCCC[C@@H]2O)cc1NC(=O)c1cnn2cccnc12 (stereo in doubt) [Example 414, N-(3-(5-chloro-2-ethoxyphenyl)-1-((1S,2S)-2-hydroxycyclohexyl)-1H-pyrazol-4-yl)pyrazolo[1,5-a]pyrimidine-3-carboxamide And N-(3-(5-chloro-2-ethoxyphenyl)-1-((1R,2R)-2-hydroxycyclohexyl)-1H-pyrazol-4-yl)pyrazolo[1,5-a]pyrimidine-3-carboxamide] | 12.5 nM | 210 nM | 76 nM | 3.8 nM |
| Cc1cc(NC(=O)c2cnn3cccnc23)n(-c2cc(C#N)ccc2Cl)n1 [Example 38, N-(1-(2-chloro-5-cyanophenyl)-3-methyl-1H-pyrazol-5-yl)pyrazolo[1,5-a]pyrimidine-3-carboxamide] | 5.7 nM | 102 nM | 131 nM | 40.3 nM |
| COc1ccc(C#N)cc1-c1nn(CC2(O)CCCC2)cc1NC(=O)c1cnn2cccnc12 [Example 359, N-(3-(5-cyano-2-methoxyphenyl)-1-((1-hydroxycyclopentyl)methyl)-1H-pyrazol-4-yl)pyrazolo[1,5-a]pyrimidine-3-carboxamide] | 4.2 nM | 690 nM | 46 nM | 1 nM |
| Cc1cc(NC(=O)c2cnn3cccnc23)n(-c2ccccc2Br)n1 [Example 44, N-(1-(2-bromophenyl)-3-methyl-1H-pyrazol-5-yl)pyrazolo[1,5-a]pyrimidine-3-carboxamide] | 18 nM | 140 nM | 480 nM | 131 nM |

Further compounds by falling Ki (JAK2 kinase domain), results first:

| Ki (JAK2 kinase domain) | Ki (JAK3 kinase domain) | Ki (TYK2 kinase domain) | Ki (JAK1 kinase domain) | SMILES |
| --- | --- | --- | --- | --- |
| 5.7 nM | 570 nM | 31 nM | 1.5 nM | COc1ccc(Cl)cc1-c1nn(CC(O)(C(F)(F)F)C(F)(F)F)cc1NC(=O)c1cnn2cccnc12 [Example 432, N-(3-(5-chloro-2-methoxyphenyl)-1-(3,3,3-trifluoro-2-hydroxy-2-(trifluoromethyl)propyl)-1H-pyrazol-4-yl)pyrazolo[1,5-a]pyrimidine-3-carboxamide] |
| 4.9 nM | 152 nM | 99.6 nM | 46.2 nM | Cc1cc(NC(=O)c2cnn3cccnc23)n(-c2cc(Cl)ccc2C)n1 [Example 6, N-(1-(5-chloro-2-methylphenyl)-3-methyl-1H-pyrazol-5-yl)pyrazolo[1,5-a]pyrimidine-3-carboxamide] |
| 2.5 nM | 170 nM | 10 nM | 0.5 nM | COc1ccc(Cl)cc1-c1nn(CC(=O)N2CC=CCC2)cc1NC(=O)c1cnn2cccnc12 [Example 300, N-(3-(5-chloro-2-methoxyphenyl)-1-(2-(5,6-dihydropyridin-1(2H)-yl)-2-oxoethyl)-1H-pyrazol-4-yl)pyrazolo[1,5-a]pyrimidine-3-carboxamide] |
| 1 nM | 18 nM | 5.6 nM | 4.4 nM | COc1ccc(Cl)cc1-c1c(NC(=O)c2cnn3cccnc23)cnn1CCO [Example 109, N-(5-(5-chloro-2-methoxyphenyl)-1-(2-hydroxyethyl)-1H-pyrazol-4-yl)pyrazolo[1,5-a]pyrimidine-3-carboxamide] |
| 0.5 nM | 5.5 nM | 2.3 nM | 2.1 nM | COc1ccc(Cl)cc1-c1c(NC(=O)c2c(N)nn3cccnc23)cnn1CC(N)=O [Example 217, 2-amino-N-(1-(2-amino-2-oxoethyl)-5-(5-chloro-2-methoxyphenyl)-1H-pyrazol-4-yl)pyrazolo[1,5-a]pyrimidine-3-carboxamide] |
